Measurements taken from article PMC5218480 (PLoS ONE, 2017).

Test system: MV-4-11 cells
Experiment: Gene expression microarray analysis (Affymetrix PrimeView) and GSEA
Type: cell-based, human
Set-up: RFU PODN (11730768_x_at) / Fold change /veh PODN (11730768_x_at) / RFU LINC00158 (11744669_a_at) / Fold change /veh LINC00158 (11744669_a_at) / RFU DUSP10 (11751237_a_at) / Fold change /veh DUSP10 (11751237_a_at) / RFU ID3 (11757404_x_at) / Fold change /veh ID3 (11757404_x_at) / RFU PLEKHG5 (11737974_s_at) / Fold change /veh PLEKHG5 (11737974_s_at) / RFU LRRC4B (11730491_at) / Fold change /veh LRRC4B (11730491_at) / RFU GIMAP4 (11747438_a_at) / Fold change /veh GIMAP4 (11747438_a_at) / RFU KRT8 (11758183_x_at) / Fold change /veh KRT8 (11758183_x_at) / RFU CNN1 (11734310_a_at) / Fold change /veh CNN1 (11734310_a_at) / RFU VPS37D (11726825_at) / Fold change /veh VPS37D (11726825_at) / RFU C10orf10 (11716522_x_at) / Fold change /veh C10orf10 (11716522_x_at) / RFU KIR2DL2 /// KIR2DL4 /// KIR2DL5A /// KIR2DL5B /// KIR2DS1 /// KIR2DS2 /// KIR2DS3 /// KIR2DS4 /// KIR3DL3 /// KIR3DL3 /// KIR3DS1 (11738374_at) / Fold change /veh KIR2DL2 /// KIR2DL4 /// KIR2DL5A /// KIR2DL5B /// KIR2DS1 /// KIR2DS2 /// KIR2DS3 /// KIR2DS4 /// KIR3DL3 /// KIR3DL3 /// KIR3DS1 (11738374_at) / RFU C1QL1 (11718748_at) / Fold change /veh C1QL1 (11718748_at) / RFU TMPRSS4 (11747572_a_at) / Fold change /veh TMPRSS4 (11747572_a_at) / RFU HAMP (11756126_x_at) / Fold change /veh HAMP (11756126_x_at) / RFU RNFT2 (11725882_a_at) / Fold change /veh RNFT2 (11725882_a_at) / RFU NR4A2 (11747474_a_at) / Fold change /veh NR4A2 (11747474_a_at) / RFU ABCC12 (11746883_a_at) / Fold change /veh ABCC12 (11746883_a_at) / RFU TMEM136 (11760407_x_at) / Fold change /veh TMEM136 (11760407_x_at) / RFU CLDN22 /// WWC2 (11732394_at) / Fold change /veh CLDN22 /// WWC2 (11732394_at) / RFU HLA-DPB1 (11760878_x_at) / Fold change /veh HLA-DPB1 (11760878_x_at) / RFU SPINT1 (11716480_a_at) / Fold change /veh SPINT1 (11716480_a_at) / RFU GAP43 (11754022_s_at) / Fold change /veh GAP43 (11754022_s_at) / RFU A4GNT (11735810_at) / Fold change /veh A4GNT (11735810_at) / RFU PRB3 (11715151_x_at) / Fold change /veh PRB3 (11715151_x_at) / RFU TUBB4B (11761932_at) / Fold change /veh TUBB4B (11761932_at) / RFU CAPN14 (11732068_a_at) / Fold change /veh CAPN14 (11732068_a_at) / RFU TMCC2 (11721928_a_at) / Fold change /veh TMCC2 (11721928_a_at) / RFU IRGQ (11745062_a_at) / Fold change /veh IRGQ (11745062_a_at) / RFU FAM174B (11720279_a_at) / Fold change /veh FAM174B (11720279_a_at) / RFU TMPRSS4 (11748680_a_at) / Fold change /veh TMPRSS4 (11748680_a_at) / RFU FAM212B (11763350_a_at) / Fold change /veh FAM212B (11763350_a_at) / RFU PLEKHG5 (11743358_a_at) / Fold change /veh PLEKHG5 (11743358_a_at) / RFU ZSCAN30 (11745921_a_at) / Fold change /veh ZSCAN30 (11745921_a_at) / RFU CMKLR1 (11741424_a_at) / Fold change /veh CMKLR1 (11741424_a_at) / RFU LOC101060620 /// MAPK8IP1 (11723275_at) / Fold change /veh LOC101060620 /// MAPK8IP1 (11723275_at) / RFU SPTSSB (11747773_x_at) / Fold change /veh SPTSSB (11747773_x_at) / RFU PRSS12 (11739890_at) / Fold change /veh PRSS12 (11739890_at) / RFU BIN1 (11741810_x_at) / Fold change /veh BIN1 (11741810_x_at) / RFU WNT11 (11732464_a_at) / Fold change /veh WNT11 (11732464_a_at) / RFU C10orf10 (11716521_a_at) / Fold change /veh C10orf10 (11716521_a_at) / RFU C5orf56 (11738089_at) / Fold change /veh C5orf56 (11738089_at) / RFU CYB561 (11721691_x_at) / Fold change /veh CYB561 (11721691_x_at) / RFU ANKRD19P (11752326_a_at) / Fold change /veh ANKRD19P (11752326_a_at) / RFU OR2T12 /// OR2T33 /// OR2T8 (11738714_s_at) / Fold change /veh OR2T12 /// OR2T33 /// OR2T8 (11738714_s_at) / RFU VCAN (11748164_a_at) / Fold change /veh VCAN (11748164_a_at) / RFU JSRP1 (11732532_at) / Fold change /veh JSRP1 (11732532_at) / RFU KRTAP10-11 (11738290_x_at) / Fold change /veh KRTAP10-11 (11738290_x_at) / RFU MYO3A (11730013_a_at) / Fold change /veh MYO3A (11730013_a_at) / RFU EBF3 (11725865_a_at) / Fold change /veh EBF3 (11725865_a_at) / RFU CAMK2N1 (11719241_x_at) / Fold change /veh CAMK2N1 (11719241_x_at) / RFU C5orf56 (11738088_a_at) / Fold change /veh C5orf56 (11738088_a_at) / RFU OLFML3 (11715873_a_at) / Fold change /veh OLFML3 (11715873_a_at) / RFU LOC100653217 /// NTM (11731650_a_at) / Fold change /veh LOC100653217 /// NTM (11731650_a_at) / RFU MAPK11 (11762145_a_at) / Fold change /veh MAPK11 (11762145_a_at) / RFU FIZ1 (11724087_x_at) / Fold change /veh FIZ1 (11724087_x_at) / RFU OASL (11726364_x_at) / Fold change /veh OASL (11726364_x_at) / RFU SOX15 (11748057_x_at) / Fold change /veh SOX15 (11748057_x_at) / RFU CD79A (11719716_a_at) / Fold change /veh CD79A (11719716_a_at) / RFU HIST1H1D (11736915_at) / Fold change /veh HIST1H1D (11736915_at) / RFU CASKIN2 (11723855_a_at) / Fold change /veh CASKIN2 (11723855_a_at) / RFU LOC730098 (11760151_x_at) / Fold change /veh LOC730098 (11760151_x_at) / RFU OR4N2 (11742367_at) / Fold change /veh OR4N2 (11742367_at) / RFU PRRT2 (11749266_a_at) / Fold change /veh PRRT2 (11749266_a_at) / RFU SNX32 (11753110_a_at) / Fold change /veh SNX32 (11753110_a_at) / RFU CDHR5 (11726645_a_at) / Fold change /veh CDHR5 (11726645_a_at) / RFU RCAN1 (11760418_a_at) / Fold change /veh RCAN1 (11760418_a_at) / RFU FAM167A (11723789_a_at) / Fold change /veh FAM167A (11723789_a_at) / RFU FAM26E (11764081_at) / Fold change /veh FAM26E (11764081_at) / RFU ISYNA1 (11749810_s_at) / Fold change /veh ISYNA1 (11749810_s_at) / RFU ACY1 (11761880_at) / Fold change /veh ACY1 (11761880_at) / RFU 11764098_at / Fold change /veh 11764098_at / RFU SAMD14 (11745864_x_at) / Fold change /veh SAMD14 (11745864_x_at) / RFU NPB (11741838_a_at) / Fold change /veh NPB (11741838_a_at) / RFU TMPRSS6 (11731388_a_at) / Fold change /veh TMPRSS6 (11731388_a_at) / RFU KRTAP10-2 (11738614_at) / Fold change /veh KRTAP10-2 (11738614_at) / RFU ARHGAP8 /// PRR5-ARHGAP8 (11727945_x_at) / Fold change /veh ARHGAP8 /// PRR5-ARHGAP8 (11727945_x_at) / RFU KRTAP5-7 /// NADSYN1 (11734609_at) / Fold change /veh KRTAP5-7 /// NADSYN1 (11734609_at) / RFU RASL12 (11751679_a_at) / Fold change /veh RASL12 (11751679_a_at) / RFU CDKN2B (11736163_a_at) / Fold change /veh CDKN2B (11736163_a_at) / RFU PRF1 (11729649_at) / Fold change /veh PRF1 (11729649_at) / RFU, ZNF638 /// ZNF638-IT1 / Fold change vs veh, ZNF638 /// ZNF638-IT1 / RFU, PANK3 / Fold change vs veh, PANK3 / RFU, SH3YL1 / Fold change vs veh, SH3YL1 / RFU, ZEB2 / Fold change vs veh, ZEB2 / RFU, NRIP1 / Fold change vs veh, NRIP1 / RFU, PTTG1IP / Fold change vs veh, PTTG1IP / RFU, CAPN2 / Fold change vs veh, CAPN2 / RFU, MED14 / Fold change vs veh, MED14 / RFU, SNORA58 / Fold change vs veh, SNORA58 / RFU, C1orf63 / Fold change vs veh, C1orf63 / RFU, LRRFIP1 / Fold change vs veh, LRRFIP1 / RFU, NDUFAF7 / Fold change vs veh, NDUFAF7 / RFU, SLC12A2 / Fold change vs veh, SLC12A2 / RFU, IBTK / Fold change vs veh, IBTK / RFU, ESF1 / Fold change vs veh, ESF1 / Fold change vs veh, TMEM50B / RFU, TAOK1 / Fold change vs veh, TAOK1 / RFU, ACBD3 / Fold change vs veh, ACBD3 / RFU, TMA16 / Fold change vs veh, TMA16 / RFU, RWDD3 / Fold change vs veh, RWDD3 / RFU, BCAT1 / Fold change vs veh, BCAT1 / RFU, EDEM3 / Fold change vs veh, EDEM3 / RFU, TMEM33 / Fold change vs veh, TMEM33 / RFU, WDR75 / Fold change vs veh, WDR75 / RFU, AHCTF1 / Fold change vs veh, AHCTF1 / RFU, TFRC / Fold change vs veh, TFRC / RFU, ZDHHC17 / Fold change vs veh, ZDHHC17 / RFU, NOM1 / Fold change vs veh, NOM1 / RFU, ARL8B / Fold change vs veh, ARL8B / RFU, ZBTB11 / Fold change vs veh, ZBTB11 / RFU, TAMM41 / Fold change vs veh, TAMM41 / RFU, KIAA1704 /// LOC100996395 / Fold change vs veh, KIAA1704 /// LOC100996395 / RFU, ING1 / Fold change vs veh, ING1 / RFU, TRMT61B / Fold change vs veh, TRMT61B / RFU, FUBP3 / Fold change vs veh, FUBP3 / RFU, TP53 / Fold change vs veh, TP53 / RFU, TNKS2 / Fold change vs veh, TNKS2 / RFU, ZFP14 / Fold change vs veh, ZFP14 / RFU, ACTR2 / Fold change vs veh, ACTR2 / RFU, PPP3R1 / Fold change vs veh, PPP3R1 / RFU, PIK3R1 / Fold change vs veh, PIK3R1 / RFU, HNRNPA1 / Fold change vs veh, HNRNPA1 / RFU, RNF170 / Fold change vs veh, RNF170 / RFU, ZNF28 / Fold change vs veh, ZNF28 / RFU, RNGTT / Fold change vs veh, RNGTT / RFU, OGT / Fold change vs veh, OGT / RFU, BRD1 / Fold change vs veh, BRD1 / RFU, MARS / Fold change vs veh, MARS / RFU, ZNF655 / Fold change vs veh, ZNF655 / RFU, FAHD1 / Fold change vs veh, FAHD1 / RFU, BDP1 / Fold change vs veh, BDP1 / RFU, LRRCC1 / Fold change vs veh, LRRCC1 / RFU, ARID1A / Fold change vs veh, ARID1A / RFU, ZNF146 / Fold change vs veh, ZNF146 / RFU, ZNF330 / Fold change vs veh, ZNF330 / RFU, GPN3 / Fold change vs veh, GPN3 / RFU, C9orf123 / Fold change vs veh, C9orf123 / RFU, N4BP2L2 / Fold change vs veh, N4BP2L2 / RFU, ARFIP1 / Fold change vs veh, ARFIP1 / RFU, FAM179B / Fold change vs veh, FAM179B / RFU, BCL10 / Fold change vs veh, BCL10 / RFU, UHRF1BP1L / Fold change vs veh, UHRF1BP1L / RFU, BET1 / Fold change vs veh, BET1 / RFU, CNOT2 / Fold change vs veh, CNOT2 / RFU, ZNF268 / Fold change vs veh, ZNF268 / Fold change vs veh, ZNF507 / RFU, DGCR2 / Fold change vs veh, DGCR2 / RFU, WDSUB1 / Fold change vs veh, WDSUB1 / Fold change vs veh, HSP90B1 /// MIR3652 / RFU, ADSS / Fold change vs veh, ADSS / RFU, GK / Fold change vs veh, GK / RFU, ZNF148 / Fold change vs veh, ZNF148 / RFU, TAF9 / Fold change vs veh, TAF9 / RFU, SLC1A5 / Fold change vs veh, SLC1A5 / RFU, SLMO2 / Fold change vs veh, SLMO2 / RFU, ABCC4 / Fold change vs veh, ABCC4 / RFU, LOC101060439 /// RAP1B / Fold change vs veh, LOC101060439 /// RAP1B / RFU, RFX7 / Fold change vs veh, RFX7 / RFU, GTPBP10 / Fold change vs veh, GTPBP10 / RFU, CNEP1R1 / Fold change vs veh, CNEP1R1 / RFU, BIVM-ERCC5 /// ERCC5 / Fold change vs veh, BIVM-ERCC5 /// ERCC5 / RFU, ILF3 / Fold change vs veh, ILF3 / RFU 11762660_at / Fold change /veh 11762660_at / RFU VCAN (11757783_s_at) / Fold change /veh VCAN (11757783_s_at) / RFU DDX43 (11728927_at) / Fold change /veh DDX43 (11728927_at) / RFU KRT8 (11758188_x_at) / Fold change /veh KRT8 (11758188_x_at) / RFU NKD1 (11759106_at) / Fold change /veh NKD1 (11759106_at) / RFU SRD5A1 (11742802_a_at) / Fold change /veh SRD5A1 (11742802_a_at) / RFU TPSAB1 /// TPSB2 (11721975_s_at) / Fold change /veh TPSAB1 /// TPSB2 (11721975_s_at) / RFU GSTM3 (11746129_a_at) / Fold change /veh GSTM3 (11746129_a_at) / RFU IL23R (11737362_x_at) / Fold change /veh IL23R (11737362_x_at) / RFU TMEM51 (11727254_a_at) / Fold change /veh TMEM51 (11727254_a_at) / RFU PIWIL2 (11732686_x_at) / Fold change /veh PIWIL2 (11732686_x_at) / RFU ORM1 (11744905_x_at) / Fold change /veh ORM1 (11744905_x_at) / RFU CCDC152 (11743942_at) / Fold change /veh CCDC152 (11743942_at) / RFU ECM1 (11717891_a_at) / Fold change /veh ECM1 (11717891_a_at) / RFU IL23R (11748794_a_at) / Fold change /veh IL23R (11748794_a_at) / RFU TNFAIP8L3 (11732012_x_at) / Fold change /veh TNFAIP8L3 (11732012_x_at) / RFU MBOAT4 (11741988_at) / Fold change /veh MBOAT4 (11741988_at) / RFU 11764193_at / Fold change /veh 11764193_at / RFU TMEM53 (11763286_at) / Fold change /veh TMEM53 (11763286_at) / RFU MAGEB2 (11727129_at) / Fold change /veh MAGEB2 (11727129_at) / RFU TMEM200A (11744735_a_at) / Fold change /veh TMEM200A (11744735_a_at) / RFU CCDC152 (11751479_a_at) / Fold change /veh CCDC152 (11751479_a_at) / RFU FAM211A (11726209_a_at) / Fold change /veh FAM211A (11726209_a_at) / RFU RGS16 (11746705_a_at) / Fold change /veh RGS16 (11746705_a_at) / RFU VCAN (11755009_s_at) / Fold change /veh VCAN (11755009_s_at) / RFU RHOB (11743442_s_at) / Fold change /veh RHOB (11743442_s_at) / RFU RGS16 (11720943_a_at) / Fold change /veh RGS16 (11720943_a_at) / RFU RGS16 (11720944_at) / Fold change /veh RGS16 (11720944_at) / RFU, VPS4B / Fold change vs veh, VPS4B / RFU, CREB1 / Fold change vs veh, CREB1 / RFU, DNAJC13 / Fold change vs veh, DNAJC13 / RFU, GNAQ / Fold change vs veh, GNAQ / RFU, CDK5R1 / Fold change vs veh, CDK5R1 / RFU, ZRANB3 / Fold change vs veh, ZRANB3 / RFU, CUL4A / Fold change vs veh, CUL4A / RFU, CCNY / Fold change vs veh, CCNY / RFU, UFL1 / Fold change vs veh, UFL1 / RFU, COG3 / Fold change vs veh, COG3 / RFU, DIAPH2 / Fold change vs veh, DIAPH2 / RFU, SKA2 / Fold change vs veh, SKA2 / RFU, AFF3 / Fold change vs veh, AFF3 / RFU, LMF1 / Fold change vs veh, LMF1 / RFU, IPO11 / Fold change vs veh, IPO11 / RFU, DFFB / Fold change vs veh, DFFB / RFU, FOXP1 / Fold change vs veh, FOXP1 / RFU, CARD8 / Fold change vs veh, CARD8 / RFU, STRN3 / Fold change vs veh, STRN3 / RFU, ADK / Fold change vs veh, ADK / RFU, RASSF2 / Fold change vs veh, RASSF2 / RFU, WIPF1 / Fold change vs veh, WIPF1 / RFU, LARP1B / Fold change vs veh, LARP1B / RFU, RASA1 / Fold change vs veh, RASA1 / RFU, RB1 / Fold change vs veh, RB1 / RFU, PPFIA1 / Fold change vs veh, PPFIA1 / RFU, MAT2A / Fold change vs veh, MAT2A / RFU, CCT5 / Fold change vs veh, CCT5 / RFU, WDR92 / Fold change vs veh, WDR92 / RFU, CUX1 / Fold change vs veh, CUX1 / RFU, TTC7A / Fold change vs veh, TTC7A / RFU, TMEM135 / Fold change vs veh, TMEM135 / RFU, DEPTOR / Fold change vs veh, DEPTOR / RFU, CPM / Fold change vs veh, CPM / RFU, DNAJB6 / Fold change vs veh, DNAJB6 / RFU, CACNA2D3 / Fold change vs veh, CACNA2D3 / RFU, DTX4 / Fold change vs veh, DTX4 / RFU, TFCP2 / Fold change vs veh, TFCP2 / RFU, GMCL1 /// GMCL1P1 / Fold change vs veh, GMCL1 /// GMCL1P1 / RFU, AEBP2 / Fold change vs veh, AEBP2 / RFU, SNHG1 /// SNORD22 /// SNORD25 /// SNORD26 /// SNORD27 /// SNORD28 /// SNORD29 /// SNORD31 / Fold change vs veh, SNHG1 /// SNORD22 /// SNORD25 /// SNORD26 /// SNORD27 /// SNORD28 /// SNORD29 /// SNORD31 / Fold change (Aza/veh), C12orf56 (ProbeSet 11735607_a_at) / Fold change (ACY-1035/veh), C12orf56 (ProbeSet 11735607_a_at) / Fold change (Aza/veh), FGFR1OP (ProbeSet 11751329_s_at) / Fold change (ACY-1035/veh), FGFR1OP (ProbeSet 11751329_s_at) / Fold change (Aza/veh), VPS36 (ProbeSet 11739960_a_at) / Fold change (ACY-1035/veh), VPS36 (ProbeSet 11739960_a_at) / RFU SYPL1 (11715823_x_at) / Fold change /veh SYPL1 (11715823_x_at) / RFU IGFBP7 (11715501_s_at) / Fold change /veh IGFBP7 (11715501_s_at) / RFU REEP3 (11722064_at) / Fold change /veh REEP3 (11722064_at) / RFU IGLL1 (11728026_x_at) / Fold change /veh IGLL1 (11728026_x_at): dose or concentration left out as unconfirmed
Conditions: MV-4-11 cells, 48 hours

## Nc1ncn([C@@H]2O[C@H](CO)[C@@H](O)[C@H]2O)c(=O)n1 [azacitidine]
  RFU MBOAT4 (11741988_at): 11.61 RFU
